Literature values, collected in patent US20150246027A1, “FIXED DOSE PHARMACEUTICAL COMPOSITION COMPRISING DEFERASIROX AND DEFERIPRONE” (CIPLA LIMITED, priority 2012, published 2015).
In brackets after ≈: the same amount, converted by molar mass. Entries after “also recorded” stand apart in the source; their conditions may differ.

What was measured:
[1] = Bio-pharmaceutics Classification System
[2] = for solubility in water (in words): water / aqueous media
[3] = oral; majority excreted as inactive glucuronide metabolite

BCS class [1] | solubility at pH 6.8 (in words) ([2]; pH 6.8, until the buffer strength is altered) | permeability (in words) | solubility in water ([2]; water) | ingested dose excreted as the active form [3] | SMILES | solubility in water (in words) [2]
Class II | insoluble | good permeability |  |  | O=C(O)c1ccc(-n2nc(-c3ccccc3O)nc2-c2ccccc2O)cc1 [Deferasirox, 4-[3,5-bis(2-hydroxyphenyl)-[1,2,4]triazol-1-yl]enzoic acid] | highly water-insoluble; also recorded: practically insoluble
 |  |  | 12.95 mg/mL (≈ 93.1 mM) | less than 10% | Cc1c(O)c(=O)ccn1C [Deferiprone, 3-hydroxy-1,2-dimethylpyridin-4-one] | sparingly soluble
